According to patent US20220062380A1 (priority 2018, published 2022):
Where no end group is shown, it is not given here.

What was measured:
Swiss Webster mice [1] = assay: Saelens drug-precipitated withdrawal in the mouse, TCAP-1 pre-morphine (Example 1); type: in vivo
plasma corticosterone = assay: Plasma corticosterone levels in the Saelens precipitated withdrawal model, Protocol B (Example 3); type: in vivo, mouse; settings: morphine-treated mice, naloxone-precipitated withdrawal; for plasma corticosterone levels: TCAP-1 250 nmole/kg vs. CP154,526 5, 20, 50 mg/kg
Protocol: Two hours after the 11 a.m. injections, at 1 p.m., all mice received an intraperitoneal (“i.p.”) injection of Naloxone 2.5 mg/kg), baseline blood samples were taken and then they were immediately placed individually in an observation area and video recorded 20 minutes. The number of jumps (lifting of all feet off the ground) were recorded for 20 minutes. A second set of blood samples were taken post-jumps (about 30 minutes after the naloxone administration.
The same protocol as in Protocol A was followed with the exception that on day 2, there were three Group 3 mice (10 per group) which were administered: 5 mg/kg, 20 mg/kg or 50 mg/kg of the CRH antagonist CP154,526.

Swiss Webster mice [2] = assay: Saelens precipitated withdrawal test, single dose TCAP-1 post-morphine (Example 2); type: in vivo, mouse; settings: Group 4: TCAP-1 500 nmole/kg s.c. single dose post-morphine; naloxone 10 mg/kg i.p.
Swiss Webster mice [3] = assay: Saelens precipitated withdrawal test, CRH antagonist vs. TCAP-1, Protocol A (Example 3); type: in vivo, mouse; settings: TCAP-1 250 nmole/kg per time point vs. CRH antagonist 20 mg/kg per time point; morphine-treated mice; naloxone 2.5 mg/kg i.p.
Swiss Webster mice [4] = assay: Saelens precipitated withdrawal test, CRH antagonist dose response vs. TCAP-1, Protocol B, jumps (Example 3); type: in vivo, mouse; settings: TCAP-1 250 nmole/kg vs. CP154,526 5, 20, 50 mg/kg; morphine-treated mice; naloxone 2.5 mg/kg i.p.

Row | Compound | Mean # Jumps over 20 Minutes (Swiss Webster mice [1]; Group 8: saline days 1-3, saline day 4-5, MK801 on day 5, no morphine, no naloxone, n = 4) | plasma corticosterone levels (plasma corticosterone) | dose needed to approach TCAP-1 250 nmole/kg effect on corticosterone levels (plasma corticosterone) | number of jumps in 20 minutes after naloxone (Swiss Webster mice [2]) | number of jumps/20 minutes after naloxone (Swiss Webster mice [3]) | number of jumps/20 minutes (Swiss Webster mice [4]) | Mean # Jumps over 20 Minutes (Swiss Webster mice [1]; TCAP-1 10 nmole/kg s.c. days 1-3, morphine 32 mg/kg i.p. days 4-5, naloxone 10 mg/kg i.p., n = 3) | Mean # Jumps over 20 Minutes (Swiss Webster mice [1]; TCAP-1 25 nmole/kg s.c. days 1-3, morphine 32 mg/kg i.p. days 4-5, naloxone 10 mg/kg i.p., n = 9) | Mean # Jumps over 20 Minutes (Swiss Webster mice [1]; TCAP-1 50 nmole/kg s.c. days 1-3, morphine 32 mg/kg i.p. days 4-5, naloxone 10 mg/kg i.p., n = 9) | Mean # Jumps over 20 Minutes (Swiss Webster mice [1]; TCAP-1 100 nmole/kg s.c. days 1-3, morphine 32 mg/kg i.p. days 4-5, naloxone 10 mg/kg i.p., n = 9) | Mean # Jumps over 20 Minutes (Swiss Webster mice [1]; TCAP-1 250 nmole/kg s.c. days 1-3, morphine 32 mg/kg i.p. days 4-5, naloxone 10 mg/kg i.p., n = 9) | jump rate after naloxone-precipitated morphine withdrawal (Swiss Webster mice [1]; TCAP-1 10-250 nmole/kg pre-morphine vs. morphine alone)
1 | C[C@]12N[C@H](Cc3ccccc31)c1ccccc12 [MK801, reference compound] | 0 |  |  |  |  |  |  |  |  |  |  | 
2 | CCCCN(CC)c1nc(C)nc2c1c(C)cn2-c1c(C)cc(C)cc1C [CP154,526] |  | still had an effect | at least 50 mg/kg |  |  |  |  |  |  |  |  | 
3 | Teneurin C-Terminal Associated Peptide-1 (QQLLGTGRVQGYDGYFVLSVEQYLELSDSANNIHFMRQSEI-NH2) [TCAP-1, mouse TCAP-1 in some experiments] |  | more effective in reducing plasma corticosterone levels in the mice at lower dosage levels |  | significantly reduced the number of jumps | much more effective and at lower dosages in significantly lowering the number of jumps | more effective in reducing the number of jumps/20 minutes | 47 | 47 | 42 | 32 | 16 | reduced jump rates in a dose dependent manner
